In PubChem BioAssay (NCI):
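Assay format: 96-well plates, 48-hour exposure. The concentration for full growth arrest is given as TGI.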

Legend:
Test in all cases: NCI anticancer screen, dose series, 48 h
786-0 renal = test system: 786-0 renal
A498 renal = test system: A498 renal
A549 NSCLC = test system: A549 NSCLC
ACHN renal = test system: ACHN renal
BT-549 breast = test system: BT-549 breast
CAKI-1 renal = test system: CAKI-1 renal
CCRF-CEM leukemia = test system: CCRF-CEM leukemia
COLO 205 colon = test system: COLO 205 colon
DU-145 prostate = test system: DU-145 prostate
HCC-2998 colon = test system: HCC-2998 colon
HCT-116 colon = test system: HCT-116 colon
HCT-15 colon = test system: HCT-15 colon
HL-60(TB) leukemia = test system: HL-60(TB) leukemia
HOP-62 NSCLC = test system: HOP-62 NSCLC
HOP-92 NSCLC = test system: HOP-92 NSCLC
HS 578T breast = test system: HS 578T breast
HT29 colon = test system: HT29 colon
IGROV1 ovarian = test system: IGROV1 ovarian
K-562 leukemia = test system: K-562 leukemia
KM12 colon = test system: KM12 colon
LOX IMVI melanoma = test system: LOX IMVI melanoma
M14 melanoma = test system: M14 melanoma
MDA-MB-231 breast = test system: MDA-MB-231 breast
MDA-MB-435 = test system: MDA-MB-435
MDA-N = test system: MDA-N
MOLT-4 leukemia = test system: MOLT-4 leukemia
NCI-H226 lung = test system: NCI-H226 lung
NCI-H23 lung = test system: NCI-H23 lung
NCI-H460 lung = test system: NCI-H460 lung
NCI/ADR-RES ovarian = test system: NCI/ADR-RES ovarian
OVCAR-3 ovarian = test system: OVCAR-3 ovarian
OVCAR-4 ovarian = test system: OVCAR-4 ovarian
OVCAR-5 ovarian = test system: OVCAR-5 ovarian
OVCAR-8 ovarian = test system: OVCAR-8 ovarian
PC-3 prostate = test system: PC-3 prostate
RPMI-8226 leukemia = test system: RPMI-8226 leukemia
RXF 393 renal = test system: RXF 393 renal
SF-268 CNS = test system: SF-268 CNS
SK-MEL-2 melanoma = test system: SK-MEL-2 melanoma
SK-MEL-28 melanoma = test system: SK-MEL-28 melanoma
SK-MEL-5 melanoma = test system: SK-MEL-5 melanoma
SK-OV-3 ovarian = test system: SK-OV-3 ovarian
SN12C renal = test system: SN12C renal
SNB-19 CNS = test system: SNB-19 CNS
SNB-75 CNS = test system: SNB-75 CNS
SR leukemia = test system: SR leukemia
SW-620 colon = test system: SW-620 colon
T-47D breast = test system: T-47D breast
U251 CNS = test system: U251 CNS
UACC-257 melanoma = test system: UACC-257 melanoma
UACC-62 melanoma = test system: UACC-62 melanoma

Measured: TGI

CCCCCCCCCCCCN1[C@H]2CCC[C@H]2C(O)[C@@H]2CCC[C@@H]21 (stereo partly specified)
88.2 µM: T-47D breast
> 100 µM: all other assays above
